The text below walks through data of patent US6555125B2, “Lesion and ulcer medication” (priority 1999, dated 2003).

One assay concerns Streptococcus mutans. The note with it: especially with respect to Streptococcus mutans; cited from earlier work.
Assay [1] is described as follows: Antimicrobial/bacteriostatic effect of zinc oxide at low levels. The note with it: even at low levels.

With `[O]=[Zn]` [Zinc oxide, Zinc Oxide], the antimicrobial properties result in the assay on Streptococcus mutans is “antimicrobial properties”. Moreover, the antimicrobial/bacteriostatic effect result in assay [1] is on record as “effective antimicrobial/bacteriostatic effect”.
